Here are results for 38 molecules from ChEMBL document CHEMBL1201862, “PubChem BioAssay data set” (2004).

Experiment [1] addresses T1, RNA-binding protein pos-1 (Caenorhabditis elegans, UniProt G5EF15).
T1 sequence (G5EF15 whole entry): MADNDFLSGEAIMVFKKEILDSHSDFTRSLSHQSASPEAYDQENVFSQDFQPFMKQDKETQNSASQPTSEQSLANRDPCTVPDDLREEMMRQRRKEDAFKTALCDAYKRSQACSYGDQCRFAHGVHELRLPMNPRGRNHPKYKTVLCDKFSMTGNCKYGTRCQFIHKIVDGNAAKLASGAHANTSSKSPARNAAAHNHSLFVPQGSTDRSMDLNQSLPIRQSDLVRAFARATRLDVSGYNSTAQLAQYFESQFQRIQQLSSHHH
Description: inhibitors of POS-1/mex-3 RNA binding, dose response, biochemical, fluorescence polarization (AID 1964).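 Also: purified POS-1 fused to maltose binding protein made in E. coli; potency of compounds blocking POS-1 binding to fluorescent RNA.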

For experiment [2], the target named is T2, Zinc finger protein mex-5 (Caenorhabditis elegans, UniProt Q9XUB2).
T2 sequence (Q9XUB2 whole entry): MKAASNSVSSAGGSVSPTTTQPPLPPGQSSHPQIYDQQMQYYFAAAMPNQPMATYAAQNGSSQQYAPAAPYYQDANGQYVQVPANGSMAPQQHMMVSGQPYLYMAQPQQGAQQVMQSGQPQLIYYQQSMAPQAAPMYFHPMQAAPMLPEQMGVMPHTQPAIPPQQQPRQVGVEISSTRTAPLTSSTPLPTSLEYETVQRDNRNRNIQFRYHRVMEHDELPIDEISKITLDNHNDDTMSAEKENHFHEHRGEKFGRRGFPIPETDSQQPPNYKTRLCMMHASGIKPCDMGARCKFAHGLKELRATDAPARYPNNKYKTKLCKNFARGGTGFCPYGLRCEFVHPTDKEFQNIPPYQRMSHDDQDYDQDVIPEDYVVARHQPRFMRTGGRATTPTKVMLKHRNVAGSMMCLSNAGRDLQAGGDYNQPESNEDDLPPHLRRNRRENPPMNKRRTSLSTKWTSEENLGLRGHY
Description: MEX-5/TCR-2 RNA interaction inhibitors, dose response, biochemical, C. elegans, fluorescence polarization (AID 1960). Background: Polarisation of emitted light reports the rotation of a fluorescent probe.

Experiment [3] concerns the target T3, Ubiquitin-conjugating enzyme E2 N (Homo sapiens, UniProt P61088).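 Also: Dose-response confirmation in a TR-FRET assay detecting UBC13-driven polyubiquitin chain formation, inhibition measured.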
T3 sequence (P61088 whole entry): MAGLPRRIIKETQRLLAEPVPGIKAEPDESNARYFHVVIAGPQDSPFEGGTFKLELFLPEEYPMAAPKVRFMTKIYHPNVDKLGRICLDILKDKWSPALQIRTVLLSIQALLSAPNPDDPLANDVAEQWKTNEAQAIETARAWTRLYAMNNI
It counts as functional.

A further experiment addresses T4, Protein skinhead-1 (Caenorhabditis elegans, UniProt P34707).
T4 sequence (P34707 whole entry): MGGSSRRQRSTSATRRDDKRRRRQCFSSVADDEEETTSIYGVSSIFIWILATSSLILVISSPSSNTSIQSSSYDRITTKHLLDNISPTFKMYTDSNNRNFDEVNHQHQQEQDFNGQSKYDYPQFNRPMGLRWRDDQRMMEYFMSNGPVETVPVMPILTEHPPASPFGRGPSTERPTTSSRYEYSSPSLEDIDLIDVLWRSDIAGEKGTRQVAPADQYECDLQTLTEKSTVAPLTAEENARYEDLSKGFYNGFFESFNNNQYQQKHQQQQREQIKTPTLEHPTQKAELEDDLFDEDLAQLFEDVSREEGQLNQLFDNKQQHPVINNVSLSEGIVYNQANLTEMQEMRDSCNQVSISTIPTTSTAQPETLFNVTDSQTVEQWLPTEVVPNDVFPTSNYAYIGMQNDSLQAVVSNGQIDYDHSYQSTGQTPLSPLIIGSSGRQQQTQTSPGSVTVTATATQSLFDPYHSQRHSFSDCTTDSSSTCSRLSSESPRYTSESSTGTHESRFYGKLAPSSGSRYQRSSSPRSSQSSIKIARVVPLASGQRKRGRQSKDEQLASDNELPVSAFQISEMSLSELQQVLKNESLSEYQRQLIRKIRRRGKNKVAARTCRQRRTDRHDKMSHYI
In kind it is functional.

In experiment [4] the target is T5, High affinity choline transporter 1 (Homo sapiens, UniProt Q9GZV3).
T5 sequence (Q9GZV3 whole entry): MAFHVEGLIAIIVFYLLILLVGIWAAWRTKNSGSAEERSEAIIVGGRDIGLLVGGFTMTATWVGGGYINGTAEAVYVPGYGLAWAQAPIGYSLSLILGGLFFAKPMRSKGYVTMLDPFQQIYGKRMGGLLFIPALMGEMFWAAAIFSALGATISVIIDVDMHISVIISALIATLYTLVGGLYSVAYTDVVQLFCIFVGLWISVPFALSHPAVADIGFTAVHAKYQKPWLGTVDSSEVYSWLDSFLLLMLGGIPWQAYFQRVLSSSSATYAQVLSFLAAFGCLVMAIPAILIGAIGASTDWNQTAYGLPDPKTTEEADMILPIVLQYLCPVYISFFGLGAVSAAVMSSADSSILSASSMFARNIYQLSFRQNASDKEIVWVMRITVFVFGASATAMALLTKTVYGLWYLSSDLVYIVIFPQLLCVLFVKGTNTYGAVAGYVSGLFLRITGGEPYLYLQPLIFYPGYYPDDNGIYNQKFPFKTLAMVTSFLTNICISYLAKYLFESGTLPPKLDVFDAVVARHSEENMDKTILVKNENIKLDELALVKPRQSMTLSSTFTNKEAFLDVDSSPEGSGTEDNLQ
Description: CHT inhibitors, dose response, cell-based, 5-point CRC, membrane potential dye (AID 504840). In kind it is functional.

For experiment [5], the target named is T6, Heat shock factor protein 1 (Mus musculus, UniProt P38532).
T6 sequence (P38532 whole entry): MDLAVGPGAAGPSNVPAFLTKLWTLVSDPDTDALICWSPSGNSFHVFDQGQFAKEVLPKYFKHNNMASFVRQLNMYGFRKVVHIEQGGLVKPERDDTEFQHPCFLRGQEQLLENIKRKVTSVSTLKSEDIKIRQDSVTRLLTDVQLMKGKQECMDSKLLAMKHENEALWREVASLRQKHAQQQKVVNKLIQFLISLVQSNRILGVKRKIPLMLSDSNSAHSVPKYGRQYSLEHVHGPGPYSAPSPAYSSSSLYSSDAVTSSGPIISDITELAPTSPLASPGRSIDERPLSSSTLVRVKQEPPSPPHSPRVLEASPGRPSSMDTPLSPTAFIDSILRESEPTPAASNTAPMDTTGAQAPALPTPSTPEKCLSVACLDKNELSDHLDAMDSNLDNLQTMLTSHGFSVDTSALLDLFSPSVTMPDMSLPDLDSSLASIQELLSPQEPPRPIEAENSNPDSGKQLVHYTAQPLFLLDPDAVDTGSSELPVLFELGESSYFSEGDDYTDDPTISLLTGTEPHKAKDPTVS
Description: inhibition of MG132-induced HSE-luciferase signal, confirmation, cell-based, NIH3T3, luminescence, dose retest (AID 2382).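 Also: NIH3T3 fibroblasts with HSF1-driven luciferase reporter stressed by proteasome inhibitor MG132; luminescence from HSF1-driven luciferase expression after 8 hours of MG132 stress.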 In kind it is functional.

Experiment [6] in a line: control 3'UTR Renilla luciferase suppression, dose response, counter-screen for Shn3 inhibitor project, cell-based, Clone20-Shn3RL, cherry-picked (AID 624133). In kind it is functional.
The nature of experiment [7]: Shn3 3'UTR reporter inhibitors, dose response, cell-based, Clone20 osteoblasts, firefly luciferase, cherry-picked (AID 624132).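 Also: firefly luciferase luminescence from reporter carrying the Shn3 3'UTR in osteoblasts.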 In kind it is functional.
Experiment [8] in a line: intracellular Trypanosoma cruzi inhibitors in host cells – cell-based, plate reader, cherry-pick samples, set 3, dose response (AID 651818).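 Also: compounds incubated with infected cells for about four days.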 It counts as functional.

The source made the active and inactive calls. Some results are limits rather than exact numbers.

By EC50 is commonly meant the concentration needed to bring the measured effect to its halfway point. In the case of `Cc1ccc(CN(C)C(=O)CC2C(=O)NCCN2CC2CCCCC2)cc1` (centres undefined), the EC50 in experiment [1] was 175 µM (active); in [2], > 300 µM (not active). In general, IC50 refers to the concentration that inhibits the measured activity by half. For `COc1cccc(-c2nn(C)c3sc(C(=O)NCCCN(C)Cc4ccccc4)cc23)c1`, the IC50 in [3] was > 20 µM (inactive). As to `N=c1oc2ccccc2cc1-c1nc(-c2ccccc2)cs1`, at Protein skinhead-1, the IC50 was > 100 µM (inactive). In the case of `C/C=C(\C)CN1CCC(Oc2cccc(C(=O)NCc3ccccn3)c2)CC1`, in experiment [4], the IC50 is 12.3 µM (active). As for `CCOc1ccc(/C=C2\SC(=S)N(NC(=O)c3ccncc3)C2=O)cc1OC`, the IC50 in experiment [4] was 15.1 µM (active).

For the molecule `NC(=S)N=Nc1c(O)n(CCCl)c2ccc(Cl)cc12`, the IC50 in [3] is > 20 µM (inactive). For `Cc1ccc(C(=O)N[C@@H](C)CN2C3=NC[C@H](Cc4ccccc4)N3C[C@H]2Cc2ccc(O)cc2)cc1Br`, in experiment [3], the IC50 was > 20 µM (inactive). The same measure, in the same setting: to `O=C(COC(=O)CCCCCNC1=NS(=O)(=O)c2ccccc21)Nc1ccc(Cl)c(Cl)c1` belongs > 20 µM (inactive). As for `Cc1ccc2c(c1)N(CCCC(=O)NCC1COc3ccccc3O1)C(=O)CO2` (centres undefined), the IC50 in experiment [4] is 13.8 µM (active).

Consider `CCN1C(=O)/C(=C\N(C)C)NC1=S`, for which the EC50 was 22.6 µM (active) in [1] and 154 µM (inconclusive) in experiment [2]. On to `CCOC(=O)Cc1csc(NS(=O)(=O)c2ccc3c4c(cccc24)C(=O)N3CC)n1`, for which, in experiment [4], the half-maximal inhibitory concentration (IC50) was 4.79 µM (active). On to `O=C(CCN1CCN(S(=O)(=O)c2ccc(Cl)cc2)CC1)Nc1ccc(F)cc1`, for which, on Protein skinhead-1, the IC50 is > 100 µM (inactive). For `CCOc1ccc(-c2nc(-c3cccnc3)no2)cc1`, the IC50 on Protein skinhead-1 is 22.6 µM (active). With `CN(C)S(=O)(=O)c1cccc(COc2ncnc3c(Cl)cc(Cl)cc23)c1`, the IC50 in [3] is > 20 µM (inactive). Take `COc1ccc(CCC(=O)Nc2cccc(Cl)c2)cc1`: the EC50 in [1] and in [2] was > 300 µM (not active) each time. Regarding `CCOC(=O)C1=C(C)OC(N)=C(C#N)C1c1ccc(O)c(OC)c1` (centres undefined), the EC50 in experiment [1] and in [2] was > 300 µM (not active) each time.

For the molecule `COc1ccccc1NC(=O)CSc1nc2ccccc2n1C(C)=O`, the IC50 in experiment [3] was > 20 µM (inactive). Consider `O=C(Nc1ccccc1C(=O)NCCCN1CCOCC1)c1ccc(F)cc1`, for which, in experiment [4], the IC50 is 7.09 µM (active). With `CCOC(=O)C(=NC1CCS(=O)(=O)C1)NNc1cc(Cl)ccc1Cl` (centres undefined), the IC50 in [3] is > 20 µM (inactive). Regarding `CCc1c(C)nc2cc(-c3ccccc3)nn2c1O`, the IC50 on Protein skinhead-1 was > 100 µM (inactive). In the case of `O=C(Nc1ccc(S(=O)(=O)N2CCOCC2)cc1)c1ccc(Cl)cc1Cl`, the IC50 in experiment [4] is 13.8 µM (active). The half-maximal effective concentration (EC50) in [5] was > 195 µM (not active). `COc1ccccc1NS(=O)(=O)c1cccc(C(=O)NNC(=O)c2ccc(Cl)nc2)c1`: in experiment [3], the IC50 was > 20 µM (inactive). On to `Clc1ccc(-c2nc(-c3ccncc3)no2)c(Cl)c1`, for which, at Protein skinhead-1, the IC50 is 6.36 µM (active). In the case of `CCOc1ccccc1NC(=O)COc1cccnc1[N+](=O)[O-]`, in [3], the IC50 was > 20 µM (inactive). In the case of `CCN(CC)c1ccc(C2NC(=O)c3ccccc3N2)cc1` (centres undefined), on Protein skinhead-1, the IC50 is > 100 µM (inactive). As to `O=C(O)c1ccc2ccc3ccccc3c2c1`, the IC50 at Protein skinhead-1 was > 100 µM (inactive). What is called AC50 is the concentration giving half of the maximal activity seen. In the case of `CCCCNc1cccc2c1S(=O)(=O)N(CCCC)CC(COCc1ccccc1)O2` (centres undefined), the results for the concentration at half-maximal activity (AC50) in [6] and in experiment [7] were 31.7 µM (active) and 8.93 µM (active), respectively. `COc1ccc(S(=O)(=O)Nc2ccc3c(c2)C(=O)N([C@H](C)CO)C[C@H](C)[C@@H](CN(C)Cc2ccc(-c4ccccc4)cc2)O3)cc1`: the AC50 in experiment [8] is 3.32 µM (active). The same measure, in the same setting: under `C[C@@H]1CCCCO[C@@H](CN(C)CC2CCCCC2)[C@@H](C)CN([C@H](C)CO)C(=O)c2cc(NC(=O)Nc3ccc4c(c3)OCO4)ccc2O1` stands 0.75 µM (active); under `C[C@H]1CN([C@@H](C)CO)C(=O)c2cccc(NC(=O)c3ccc(-c4nccs4)cc3)c2O[C@@H]1CN(C)Cc1ccc(-c2ccccc2)cc1`, 2.93 µM (active). Regarding `C[C@@H]1CN([C@@H](C)CO)C(=O)c2cccc(NS(=O)(=O)c3ccc(F)cc3)c2O[C@@H]1CN(C)Cc1ccc(Oc2ccccc2)cc1`, the AC50 in experiment [8] was 7.95 µM (active).

Take `C[C@@H]1CCCCO[C@H](CN(C)C(=O)NC2CCCCC2)[C@@H](C)CN([C@H](C)CO)C(=O)c2cc(NC(=O)Nc3ccc(C(F)(F)F)cc3)ccc2O1`: the AC50 in experiment [8] is 4.85 µM (active).

`C[C@@H]1CN([C@H](C)CO)C(=O)Cc2cc(NC(=O)Nc3ccc(C(F)(F)F)cc3)ccc2O[C@@H]1CN(C)Cc1ccc(-c2ccccc2)cc1`: the AC50 in [8] is 3.22 µM (active). Turning to `C[C@@H]1CN([C@H](C)CO)C(=O)Cc2cc(NC(=O)Nc3ccc(F)cc3)ccc2O[C@@H]1CN(C)Cc1ccc(Oc2ccccc2)cc1`, the AC50 in [8] is 2.71 µM (active). The same measure, in the same setting: under `COc1ccc(S(=O)(=O)N(C)C[C@@H]2Oc3c(NC(=O)c4nc5ccccc5s4)cccc3C(=O)N([C@H](C)CO)C[C@@H]2C)cc1` stands 1.17 µM (active); under `C[C@@H]1CN([C@H](C)CO)C(=O)Cc2cc(NS(=O)(=O)c3ccccc3)ccc2O[C@@H]1CN(C)Cc1ccc(C(=O)Nc2ccccc2N)cc1`, 3.75 µM (active); under `C[C@H]1CN([C@@H](C)CO)C(=O)c2cccc(NC(=O)C3CCCCC3)c2O[C@H]1CN(C)Cc1ccc(C(=O)Nc2ccccc2N)cc1`, 3.38 µM (active). As for `C[C@@H]1CCCCO[C@@H](CN(C)Cc2ccc(C(F)(F)F)cc2)[C@@H](C)CN([C@H](C)CO)C(=O)c2cc(NC(=O)C3CCCCC3)ccc2O1`, in experiment [8], the AC50 was 6.38 µM (active).
